{
  "source": "ChEMBL document CHEMBL4808180",
  "about": "“Identification of 2,2-Dimethylbutanoic Acid (HST5040), a Clinical Development Candidate for the Treatment of Propionic Acidemia and Methylmalonic Acidemia” (J Med Chem, 2021)",
  "key": {"[1]": {"experiment": "Drug excretion in Gottingen minipig urine at 10 mg/kg, po using radiolabeled compound by quantitative whole-body autoradiography", "type": "ADME, organism-based, Sus scrofa domesticus", "conditions": "pig, in vivo, 96 h; call rule not given here"}, "[2]": {"experiment": "Ratio of drug level in erythrocyte to plasma in human", "type": "ADME", "conditions": "erythrocytes and plasma"}, "[3]": {"experiment": "Reduction of propionyl carnitine in human hepatocytes derived from methylmalonic acidemia patient pretreated for 30 mins followed by 13C-isoleucine addition and measured after 1 hr by MS/MS analysis", "type": "functional, cell-based", "conditions": "hepatocyte"}, "[4]": {"experiment": "Half life in CD1 mouse at 300 mg/kg, po", "type": "ADME, organism-based", "conditions": "in vivo"}, "[5]": {"experiment": "Cmax in Gottingen minipig at 10 mg/kg, po using radiolabeled compound by quantitative whole-body autoradiography", "type": "ADME, organism-based, Sus scrofa domesticus", "design": "route oral, dose 10 mg/kg", "conditions": "pig, in vivo"}, "[6]": {"biological_target": "Bile salt export pump (Homo sapiens, UniProt O95342)", "sequence (O95342 whole entry)": "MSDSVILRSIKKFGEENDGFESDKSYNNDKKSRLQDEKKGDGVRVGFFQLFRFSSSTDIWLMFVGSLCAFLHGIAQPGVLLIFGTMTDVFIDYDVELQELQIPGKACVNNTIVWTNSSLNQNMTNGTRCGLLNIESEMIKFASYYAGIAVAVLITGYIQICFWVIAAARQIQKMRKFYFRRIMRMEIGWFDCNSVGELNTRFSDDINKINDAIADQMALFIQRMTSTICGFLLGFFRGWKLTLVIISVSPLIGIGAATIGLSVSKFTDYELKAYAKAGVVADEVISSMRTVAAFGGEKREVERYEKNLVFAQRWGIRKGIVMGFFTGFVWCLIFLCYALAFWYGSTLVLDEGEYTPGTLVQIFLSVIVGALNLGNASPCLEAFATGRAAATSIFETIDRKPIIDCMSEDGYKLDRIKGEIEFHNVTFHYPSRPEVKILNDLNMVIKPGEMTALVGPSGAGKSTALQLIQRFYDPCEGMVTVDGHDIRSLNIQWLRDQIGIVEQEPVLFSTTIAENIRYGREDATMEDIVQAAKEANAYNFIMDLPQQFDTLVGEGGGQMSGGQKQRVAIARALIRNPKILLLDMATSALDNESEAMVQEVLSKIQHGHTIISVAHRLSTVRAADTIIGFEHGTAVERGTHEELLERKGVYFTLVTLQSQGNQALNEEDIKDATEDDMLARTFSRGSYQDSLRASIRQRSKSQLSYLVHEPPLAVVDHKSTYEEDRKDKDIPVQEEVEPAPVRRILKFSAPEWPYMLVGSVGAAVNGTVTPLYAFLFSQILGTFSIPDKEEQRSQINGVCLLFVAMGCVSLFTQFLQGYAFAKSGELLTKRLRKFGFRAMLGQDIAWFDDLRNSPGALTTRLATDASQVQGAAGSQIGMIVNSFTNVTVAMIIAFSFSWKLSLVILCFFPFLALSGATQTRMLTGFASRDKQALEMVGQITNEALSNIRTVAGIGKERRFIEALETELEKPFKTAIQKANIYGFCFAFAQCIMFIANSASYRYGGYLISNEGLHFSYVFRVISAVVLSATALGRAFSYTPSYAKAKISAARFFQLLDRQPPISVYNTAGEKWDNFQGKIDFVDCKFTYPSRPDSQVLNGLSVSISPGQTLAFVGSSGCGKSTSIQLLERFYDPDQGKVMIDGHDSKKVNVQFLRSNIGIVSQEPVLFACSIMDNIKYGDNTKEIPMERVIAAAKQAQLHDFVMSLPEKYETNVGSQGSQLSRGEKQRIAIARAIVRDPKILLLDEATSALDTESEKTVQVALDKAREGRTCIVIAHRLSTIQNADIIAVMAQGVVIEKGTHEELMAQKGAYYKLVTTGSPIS", "experiment": "Inhibition of human BSEP assessed as reduction in BSEP-mediated taurocholate transport at 345 uM relative to control"}, "[7]": {"biological_target": "T1, Cytochrome P450 2B6 (Homo sapiens, UniProt P20813)", "T1 sequence (P20813 whole entry)": "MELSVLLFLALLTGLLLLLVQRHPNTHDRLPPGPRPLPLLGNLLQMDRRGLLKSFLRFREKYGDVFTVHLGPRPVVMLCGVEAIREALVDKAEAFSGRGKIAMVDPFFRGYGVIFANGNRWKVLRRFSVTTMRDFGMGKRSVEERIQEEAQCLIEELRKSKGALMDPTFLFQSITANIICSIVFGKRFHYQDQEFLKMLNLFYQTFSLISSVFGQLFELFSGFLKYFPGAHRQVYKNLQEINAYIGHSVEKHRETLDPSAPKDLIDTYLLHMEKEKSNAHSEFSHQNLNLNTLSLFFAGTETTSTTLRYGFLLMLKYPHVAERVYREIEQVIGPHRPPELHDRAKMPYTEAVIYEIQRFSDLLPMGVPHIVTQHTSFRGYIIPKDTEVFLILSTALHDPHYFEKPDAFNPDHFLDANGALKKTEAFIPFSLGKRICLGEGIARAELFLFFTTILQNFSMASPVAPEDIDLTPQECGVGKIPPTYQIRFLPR", "experiment": "Direct inhibition of CYP2B6 in human liver microsomes using bupropion as substrate", "type": "ADME"}, "[8]": {"experiment": "Stability in minipig hepatocytes assessed as unchanged compound at 50 uM measured after 4 hrs", "type": "ADME, cell-based, Sus scrofa domesticus, Hepatocyte", "conditions": "pig, read-out: Stabilty"}, "[9]": {"experiment": "Drug metabolism in minipig assessed as beta-oxidation by measuring phase1 metabolite formation at 10 mg/kg administered single dose using radiolabeled compound", "type": "ADME, organism-based, Sus scrofa domesticus", "conditions": "pig, in vivo"}, "[10]": {"experiment": "Drug excretion in Sprague-Dawley rat urine at 10 mg/kg, po using radiolabeled compound measured at 1 hr post dose", "type": "ADME, organism-based", "conditions": "in vivo"}, "[11]": {"experiment": "Reduction of propionyl-CoA in human hepatocytes derived from methylmalonic acidemia pretreated for 30 mins followed by 13C-isoleucine addition and measured after 1 hr by MS/MS analysis", "type": "functional, cell-based", "conditions": "hepatocyte"}, "[12]": {"experiment": "Clearance in CD1 mouse at 30 mg/kg, iv", "type": "ADME, organism-based", "conditions": "in vivo"}, "[13]": {"experiment": "Half life in Sprague-Dawley rat blood at 10 mg/kg, po by quantitative whole-body autoradiography", "type": "ADME, organism-based", "conditions": "in vivo"}, "[14]": {"experiment": "Half life in Sprague-Dawley rat plasma at 10 mg/kg, po using radiolabeled compound by quantitative whole-body autoradiography", "type": "ADME, organism-based", "conditions": "in vivo"}, "[15]": {"experiment": "Reduction of propionyl-CoA in human hepatocytes derived from propionic acidemia patient at 100 uM pretreated for 30 mins followed by 13C-isoleucine addition and measured after 1 hr by MS/MS analysis relative to control", "type": "functional, Hepatocyte", "design": "scale not given: the % may be the effect or the level left", "conditions": "time 90 min, 1.5 h"}},
  "data": [
    {"smiles": "CCC(C)(C)C(=O)O", "note": "[DIMEBUTIC ACID]", "values": [
      {"measurement": "Drug excretion", "setting": "[1]", "value": 77.4, "unit": "%"},
      {"measurement": "Kp", "setting": "[2]", "value": 0.343},
      {"measurement": "EC50", "setting": "[3]", "value": 1.4, "unit": "µM"},
      {"measurement": "half-life", "setting": "[4]", "value": 1.91, "unit": "h"},
      {"measurement": "Cmax", "setting": "[5]", "value": 16100, "unit": "ng/mL"},
      {"measurement": "inhibition (INH)", "setting": "[6]", "value": "Not Active"},
      {"measurement": "IC50", "setting": "[7]", "value": "> 10000", "unit": "µM"},
      {"measurement": "remaining at 4 h, 50 µM", "setting": "[8]", "value": 86, "unit": "%"},
      {"measurement": "Drug metabolism", "setting": "[9]", "value": "Metabolite_Notdetected"},
      {"measurement": "Drug excretion", "setting": "[10]", "value": 72, "unit": "%"},
      {"measurement": "EC50", "setting": "[11]", "value": 2.1, "unit": "µM"},
      {"measurement": "clearance", "setting": "[12]", "value": 7.28, "unit": "mL/min/kg"},
      {"measurement": "t1/2", "setting": "[13]", "value": 2.5, "unit": "h"},
      {"measurement": "t1/2", "setting": "[14]", "value": 2.4, "unit": "h"},
      {"measurement": "Activity", "setting": "[15]", "value": 87, "unit": "%"}
    ]}
  ]
}
